Our source for the IC50 values is patent publication US8202902B2, “Bivalent SMAC mimetics and the uses thereof” (The Regents of the University of Michigan, priority 2006, dated 2012).

Assay [1] has as its target T1, human XIAP protein (residues 120-356) (Homo sapiens, UniProt P98170).
T1 construct: human XIAP protein (residues 120-356) (10 nM)
As to the kind of experiment: Fluorescence-polarization-based binding assay to XIAP protein (Smac2-F tracer). The settings on record: read-out: Binding to XIAP IC50 values. The procedure: The polarization values were measured after 2 hours incubation, using the Ultra plate reader. […] Curve fitting is performed using GraphPad Prism® software.

Assay [2] has as its system MDA-MB-231 human breast cancer cell line. As to the kind of experiment: Cell growth inhibition, WST-8 assay, MDA-MB-231. As to conditions: MDA-MB-231, read-out: IC50 values (nM) In WST-assay (MDA-MB-231). The assay is classed as cell-based. The procedure:
(§1) The rate of cell growth inhibition after treatment with different concentrations of the compound was determined using a WST-8 kit (2-(2-methoxy-4-nitrophenyl)-3-(4-nitrophenyl)-5-(2, 4 disulfophenyl)-2H-tetrazolium monosodium salt; Dojindo Molecular Technologies, Inc., Gaithersburg, Md.). WST-8 was added at a final concentration of 10% to each well, and then the plates were incubated at 37° C. for 2-3 hrs. The absorbance of the samples was measured at 450 nm using a ULTRA Tecan Reader (Molecular Device).

Assay [3] relates to SK-OV-3. As to the kind of experiment: Cell growth inhibition, WST assay, SK-OV-3. Type of assay: cell-based. As to conditions: Homo sapiens. As for the experimental part:
as §1, with “Cells were seeded in 96-well flat bottom cell culture plates at a density of 3000 cells/well with a tested compound and incubated at 37° C. in an atmosphere of 95% air and 5% CO2 for 4 days. The rate” for “The rate”

SMILES strings stand for the structures.

T1 sequence (P98170 120-356): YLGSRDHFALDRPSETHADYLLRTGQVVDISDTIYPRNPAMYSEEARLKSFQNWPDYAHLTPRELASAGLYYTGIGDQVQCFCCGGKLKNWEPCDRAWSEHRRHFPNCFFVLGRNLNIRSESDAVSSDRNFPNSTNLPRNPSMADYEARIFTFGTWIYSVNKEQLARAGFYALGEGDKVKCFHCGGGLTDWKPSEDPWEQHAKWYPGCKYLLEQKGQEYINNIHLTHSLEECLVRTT

As for `CN[C@@H](C)C(=O)N[C@H]1CC[C@H](n2cc(COCc3cn([C@H]4CC[C@H](NC(=O)[C@H](C)NC)C(=O)N5[C@H](CC[C@H]5C(=O)N[C@@H]5CCCc6ccccc65)C4)nn3)nn2)C[C@H]2CC[C@@H](C(=O)N[C@@H]3CCCc4ccccc43)N2C1=O` (stereo in doubt) [SH-172], the half-inhibitory concentration (IC50) in assay [1] is below 10 nM; in assay [2] it was below 1000 nM.
Regarding `CN[C@@H](C)C(=O)N[C@H]1CCCC[C@H]2CC[C@@H](C(=O)N[C@H](COCCn3cc(COC[C@@H](NC(=O)[C@@H]4CC[C@@H]5CCCC[C@H](NC(=O)[C@H](C)NC)C(=O)N54)c4ccccc4)nn3)c3ccccc3)N2C1=O` [SH-143], the 50% inhibitory concentration (IC50) in assay [1] was below 50 nM.
Regarding `CN[C@@H](C)C(=O)N[C@H]1CCCC[C@H]2CC[C@@H](C(=O)N[C@H](COCc3cn([C@@H]4CC[C@H](NC(=O)[C@H](C)NC)C(=O)N5[C@H](CC[C@H]5C(=O)N[C@@H]5CCCc6ccccc65)C4)nn3)c3ccccc3)N2C1=O` [SH-146], in assay [1], the 50% inhibitory concentration (IC50) is below 50 nM.
`CN[C@@H](C)C(=O)N[C@H]1CC[C@@H](n2cc(COCc3cn([C@@H]4CC[C@H](NC(=O)[C@H](C)NC)C(=O)N5[C@H](CC[C@H]5C(=O)N[C@H]5CCCc6ccccc65)C4)nn3)nn2)C[C@H]2CC[C@@H](C(=O)NC3CCCc4ccccc43)N2C1=O` (stereo partly shown) [SH-153]: the values for the half-maximal inhibitory concentration (IC50) in assay [1] and in assay [2] were below 10 nM and below 1000 nM, respectively.
Take `CN[C@@H](C)C(=O)N[C@H]1CCCC[C@H]2CC[C@@H](C(=O)N[C@@H](c3ccccc3)c3ccc(CCCn4cc(COCc5cn(CCCc6ccc([C@@H](NC(=O)[C@@H]7CC[C@@H]8CCCC[C@H](NC(=O)[C@H](C)NC)C(=O)N87)c7ccccc7)cc6)nn5)nn4)cc3)N2C1=O` [SH-155]: the IC50 is below 10 nM in assay [1], below 100 nM in assay [2] and below 100 nM in assay [3].
As to `CN[C@@H](C)C(=O)N[C@H]1CCCC[C@H]2CC[C@@H](C(=O)N[C@@H](c3ccccc3)c3cn(CCOCCOCCn4cc([C@@H](NC(=O)[C@@H]5CC[C@@H]6CCCC[C@H](NC(=O)[C@H](C)NC)C(=O)N65)c5ccccc5)nn4)nn3)N2C1=O` [SH-158], the figures for the half-inhibitory concentration (IC50) in assay [1], in assay [2] and in assay [3] were below 10 nM, below 1000 nM and below 1000 nM, respectively.
With `CN[C@@H](C)C(=O)N[C@H]1CCCC[C@H]2CC[C@@H](C(=O)N[C@@H](c3ccccc3)c3cn(CCOCCn4cc([C@@H](NC(=O)[C@@H]5CC[C@@H]6CCCC[C@H](NC(=O)[C@H](C)NC)C(=O)N65)c5ccccc5)nn4)nn3)N2C1=O` [SH-159], the IC50 in assay [1] was below 10 nM; in assay [2], below 1000 nM; in assay [3], below 1000 nM.
Regarding `CN[C@@H](C)C(=O)N[C@H]1CCCC[C@H]2CC[C@@H](C(=O)N[C@@H](c3ccccc3)c3cn(CCCCn4cc([C@@H](NC(=O)[C@@H]5CC[C@@H]6CCCC[C@H](NC(=O)[C@H](C)NC)C(=O)N65)c5ccccc5)nn4)nn3)N2C1=O` [SH-166], the IC50 was below 10 nM in assay [1], below 1000 nM in assay [2] and below 1000 nM in assay [3].
For `CN[C@@H](C)C(=O)N[C@H]1CCCC[C@H]2CC[C@@H](C(=O)N[C@@H](c3ccccc3)c3cn(CCCCCCCCn4cc([C@@H](NC(=O)[C@@H]5CC[C@@H]6CCCC[C@H](NC(=O)[C@H](C)NC)C(=O)N65)c5ccccc5)nn4)nn3)N2C1=O` [SH-167], the IC50 in assay [2] and in assay [3] was below 10 nM in each case.
For the compound `CN[C@@H](C)C(=O)N[C@H]1CC[C@H](n2cc(COCc3cn([C@H]4CC[C@H](NC(=O)[C@H](C)NC)C(=O)N5[C@H](CC[C@H]5C(=O)NC(c5ccccc5)c5ccccc5)C4)nn3)nn2)C[C@H]2CC[C@@H](C(=O)NC(c3ccccc3)c3ccccc3)N2C1=O` [SH-176], the half-inhibitory concentration (IC50) in assay [1] is below 10 nM; in assay [2] it was below 100 nM.
Taken in the same sequence, the figures for `CN[C@@H](C)C(=O)N[C@H]1CC[C@@H](n2cc(COCc3cn([C@@H]4CC[C@H](NC(=O)[C@H](C)NC)C(=O)N5[C@H](CC[C@H]5C(=O)NC(c5ccccc5)c5ccccc5)C4)nn3)nn2)C[C@H]2CC[C@@H](C(=O)NC(c3ccccc3)c3ccccc3)N2C1=O` [SH-177] were below 10 nM and below 100 nM.
Taken in the same sequence, the figures for `CN[C@@H](C)C(=O)N[C@H]1CCCC[C@H]2CC[C@@H](C(=O)N[C@@H](c3ccccc3)c3cn(CCN4CCN(CCn5cc([C@@H](NC(=O)[C@@H]6CC[C@@H]7CCCC[C@H](NC(=O)[C@H](C)NC)C(=O)N76)c6ccccc6)nn5)CC4)nn3)N2C1=O` [SH-178] were below 100 nM and below 10000 nM.
Turning to `C[C@H](NCCO)C(=O)N[C@H]1CCCC[C@H]2CC[C@@H](C(=O)N[C@@H](c3ccccc3)c3cn(CCN4CCN(CCn5cc([C@@H](NC(=O)[C@@H]6CC[C@@H]7CCCC[C@H](NC(=O)[C@H](C)NCCO)C(=O)N76)c6ccccc6)nn5)CC4)nn3)N2C1=O` [SH-179], the results for the IC50 in assay [1] and in assay [2] were below 100 nM and below 10000 nM, respectively.
For the compound `C[C@H](NCCO)C(=O)N[C@H]1CCCC[C@H]2CC[C@@H](C(=O)N[C@@H](c3ccccc3)c3cn(CCCCc4ccc(CCCCn5cc([C@@H](NC(=O)[C@@H]6CC[C@@H]7CCCC[C@H](NC(=O)[C@H](C)NCCO)C(=O)N76)c6ccccc6)nn5)cc4)nn3)N2C1=O` [SH-180], the concentration for half-maximal inhibition (IC50) is below 100 nM in assay [1], below 1000 nM in assay [2] and below 1000 nM in assay [3].
As for `CN[C@@H](C)C(=O)N[C@H]1CCCC[C@H]2CC[C@@H](C(=O)N[C@@H](c3ccc(F)cc3)c3cn(CCN4CCN(CCn5cc([C@@H](NC(=O)[C@@H]6CC[C@@H]7CCCC[C@H](NC(=O)[C@H](C)NC)C(=O)N76)c6ccc(F)cc6)nn5)CC4)nn3)N2C1=O` [SH-181], the concentration for half-maximal inhibition (IC50) in assay [1] was below 100 nM; in assay [2] it was below 10000 nM.
Take `CN[C@@H](C)C(=O)N[C@H]1CCCC[C@H]2CC[C@@H](C(=O)N[C@@H](c3ccc(F)cc3)c3cn(CCCCc4ccc(CCCCn5cc([C@@H](NC(=O)[C@@H]6CC[C@@H]7CCCC[C@H](NC(=O)[C@H](C)NC)C(=O)N76)c6ccc(F)cc6)nn5)cc4)nn3)N2C1=O` [SH-182]: the half-maximal inhibitory concentration (IC50) in assay [1] is below 100 nM; in assay [2] it was below 10 nM; in assay [3], below 10 nM.
On to `C[C@H](NCCO)C(=O)N[C@H]1CCCC[C@H]2CC[C@@H](C(=O)N[C@@H](c3ccc(F)cc3)c3cn(CCN4CCN(CCn5cc([C@@H](NC(=O)[C@@H]6CC[C@@H]7CCCC[C@H](NC(=O)[C@H](C)NCCO)C(=O)N76)c6ccc(F)cc6)nn5)CC4)nn3)N2C1=O` [SH-183], for which the values for the IC50 in assay [1] and in assay [2] were below 100 nM and below 10000 nM, respectively.
On to `C[C@H](NCCO)C(=O)N[C@H]1CCCC[C@H]2CC[C@@H](C(=O)N[C@@H](c3ccc(F)cc3)c3cn(CCCCc4ccc(CCCCn5cc([C@@H](NC(=O)[C@@H]6CC[C@@H]7CCCC[C@H](NC(=O)[C@H](C)NCCO)C(=O)N76)c6ccc(F)cc6)nn5)cc4)nn3)N2C1=O` [SH-184], for which the 50% inhibitory concentration (IC50) in assay [1] is below 100 nM; in assay [2] it was below 10 nM; in assay [3], below 100 nM.
For the compound `CNC(Cc1c[nH]c2ccccc12)C(=O)NC1CCCCC2CCC(C(=O)NC(c3ccccc3)c3cn(CCCCc4ccc(CCCCn5cc(C(NC(=O)C6CCC7CCCCC(NC(=O)C(Cc8c[nH]c9ccccc89)NC)C(=O)N76)c6ccccc6)nn5)cc4)nn3)N2C1=O` (stereo not shown) [SH-187], the concentration for half-maximal inhibition (IC50) in assay [1] is above 10000 nM.
On to `CN[C@@H](C)C(=O)N[C@H]1CCCC[C@H]2CC[C@@H](C(=O)N[C@@H](c3ccccc3)c3ccc(CCCNC(=O)NCCCc4ccc([C@@H](NC(=O)[C@@H]5CC[C@@H]6CCCC[C@H](NC(=O)[C@@H](C)NC)C(=O)N65)c5ccccc5)cc4)cc3)N2C1=O` [SH-188], for which the IC50 in assay [1], in assay [2] and in assay [3] was below 100 nM each time.
As for `CN[C@@H](C)C(=O)N[C@H]1CCCC[C@H]2CC[C@@H](C(=O)N[C@H](c3ccccc3)c3cn(CCCCc4ccc(CCCCn5cc([C@H](NC(=O)[C@@H]6CC[C@@H]7CCCC[C@H](NC(=O)[C@H](C)NC)C(=O)N76)c6ccccc6)nn5)cc4)nn3)N2C1=O` [SH-206], the IC50 in assay [2] and in assay [3] was below 1000 nM each time.
For the compound `CN[C@@H](C)C(=O)N[C@H]1CN(Cc2ccc(CN3CC[C@H]4CC[C@@H](C(=O)NC(c5ccccc5)c5ccccc5)N4C(=O)[C@@H](NC(=O)[C@H](C)NC)C3)cc2)CC[C@H]2CC[C@@H](C(=O)NC(c3ccccc3)c3ccccc3)N2C1=O` [YP-317], the 50% inhibitory concentration (IC50) in assay [1] and in assay [2] was below 100 nM in each case.
Consider `CN[C@@H](C)C(=O)N[C@H]1CN(C(=O)CCCCCCCCC(=O)N2CC[C@H]3CCC(C(=O)NC(c4ccccc4)c4ccccc4)N3C(=O)[C@@H](NC(=O)[C@H](C)NC)C2)CC[C@H]2CCC(C(=O)NC(c3ccccc3)c3ccccc3)N2C1=O` (stereo partly shown) [YP-381], for which the IC50 in assay [2] and in assay [3] was below 10 nM in each case.
`CN[C@@H](C)C(=O)N[C@H]1CN(C(=O)CCCCCCCCCCC(=O)N2CC[C@H]3CC[C@@H](C(=O)NC(c4ccccc4)c4ccccc4)N3C(=O)[C@@H](NC(=O)[C@H](C)NC)C2)CC[C@H]2CC[C@@H](C(=O)NC(c3ccccc3)c3ccccc3)N2C1=O` [YP-383]: the IC50 in assay [2] and in assay [3] was below 10 nM throughout.
`CN[C@@H](C)C(=O)N[C@H]1CN(C(=O)CCCCCCC(=O)N2CC[C@H]3CCC(C(=O)NC(c4ccccc4)c4ccccc4)N3C(=O)[C@@H](NC(=O)[C@H](C)NC)C2)CC[C@H]2CCC(C(=O)NC(c3ccccc3)c3ccccc3)N2C1=O` (stereo partly shown) [YP-385]: the 50% inhibitory concentration (IC50) in assay [2] and in assay [3] was below 10 nM each time.
